pIC50: −log10 of the molar value.

T1 sequence (Q92633 whole entry): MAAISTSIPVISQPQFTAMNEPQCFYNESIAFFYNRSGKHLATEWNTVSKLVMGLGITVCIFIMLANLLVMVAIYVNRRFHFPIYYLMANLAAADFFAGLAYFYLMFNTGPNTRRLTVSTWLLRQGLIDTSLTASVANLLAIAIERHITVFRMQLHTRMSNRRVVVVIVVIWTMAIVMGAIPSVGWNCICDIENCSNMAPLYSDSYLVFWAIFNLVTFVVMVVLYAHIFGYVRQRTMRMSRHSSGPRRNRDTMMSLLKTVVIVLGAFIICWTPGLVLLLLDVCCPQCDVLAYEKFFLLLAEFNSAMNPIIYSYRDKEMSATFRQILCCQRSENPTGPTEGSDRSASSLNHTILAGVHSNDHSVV

The first assay addresses T1, human LPA1 (Homo sapiens, UniProt Q92633).
T1 construct: expressed in transfected cells; host or cells: Chinese hamster ovary (CHO) cells
As to the kind of experiment: LPA1 functional antagonist assay (LPA-induced calcium flux). In kind it is cell-based. As to conditions: CHO cells overexpressing human LPA1; inhibition of calcium flux induced by 10 nM LPA; read-out: hLPA1 IC50. On the procedure: The effectiveness of compounds of the present invention as LPA1 inhibitors can be determined in an LPA1 functional antagonist assay as follows: Chinese hamster ovary cells overexpressing human LPA1 were plated overnight (15,000 cells/well) in poly-D-lysine coated 384-well microplates (Greiner bio-one, Cat #781946) in DMEM/F12 medium (Gibco, Cat #11039). Following overnight culture, cells were loaded with calcium indicator dye (AAT Bioquest Inc, Cat #34601) for 30 minutes at 37° C. The cells were then equilibrated to room temperature for 30 minutes before the assay. Test compounds solubilized in DMSO were transferred to 384 well non-binding surface plates (Corning, Cat #3575) using the Labcyte Echo acoustic dispense and diluted with assay buffer [1×HBSS with calcium/magnesium (Gibco Cat #14025-092), 20 mM HEPES (Gibco Cat #15630-080) and 0.1% fatty acid free BSA (Sigma Cat #A9205)] to a final concentration of 0.5% DMSO. Diluted compounds were added to the cells by FDSS6000 (Hamamatsu) at final concentrations ranging from 0.08 nM to 5 μM. and were then incubated for 20 min at room temperature at which time LPA (Avanti Polar Lipids Cat #857130C) was added at final concentrations of 10 nM to stimulate the cells. […] IC50 values were determined by fitting data to a 4-parameter logistic equation (GraphPad Prism, San Diego Calif.).
(In general: Calcium flux is commonly read through the fluorescence of an indicator in the cells.)
For `Cc1nc(-c2nnn(C)c2COC(=O)N(C)C[C@H]2C[C@@H]2C)ccc1O[C@H]1CCCC(C(=O)O)C1` (stereo in doubt) [Example 258, (1R,3 S)-3-((2-methyl-6-(1-methyl-5-(((methyl(((1S,2S)-2-methylcyclopropyl)methyl)carbamoyl)oxy)methyl)-1H-1,2,3-triazol-4-yl)pyridin-3-yl)oxy)cyclohexane-1-carboxylic Acid], the pIC50 – broadly, −log10 of the IC50, conventionally taken in molar units – is 7.72.

For the molecule `CN(C(=O)OCc1c(-c2ccc(O[C@H]3CCC[C@H](C(=O)O)C3)cn2)nnn1C)C1CCCC1` [Example 2, (1S,3S)-3-((6-(5-(((cyclopentyl(methyl)carbamoyl)oxy)methyl)-1-methyl-1H-1,2,3-triazol-4-yl)pyridin-3-yl)oxy)cyclohexane-1-carboxylic Acid], the negative logarithm of the IC50 (pIC50) is 7.72.

With `CN(CCC1CC1)C(=O)OCc1c(-c2ccc(O[C@H]3CCC[C@H](C(=O)O)C3)cn2)nnn1C` [Example 3, (1S,3S)-3-((6-(5-((((2-cyclopropylethyl)(methyl)carbamoyl)oxy)methyl)-1-methyl-1H-1,2,3-triazol-4-yl)pyridin-3-yl)oxy)cyclohexane-1-carboxylic Acid], the pIC50 was 7.72. Still for that read-out and setting: under `CN(C(=O)OCc1c(-c2ccc(O[C@H]3CCC[C@H](C(=O)NS(C)(=O)=O)C3)cc2)nnn1C)C1CCCC1` [Example 7, (1-Methyl-4-(4-(((1S,3S)-3-((methylsulfonyl)carbamoyl)cyclohexyl)oxy)phenyl)-1H-1,2,3-triazol-5-yl)methyl cyclopentyl(methyl)carbamate] stands 5.43.

Consider `CCCC(C)(C)N(C)C(=O)OCc1c(-c2ccc(O[C@H]3CCC[C@H](C(=O)O)C3)cc2)nnn1C` [Example 10, (1S,3S)-3-(4-(1-Methyl-5-(((methyl(2-methylpentan-2-yl)carbamoyl)oxy)methyl)-1H-1,2,3-triazol-4-yl)phenoxy)cyclohexanecarboxylic Acid], for which the pIC50 was 7.64. Same read-out and setting: to `Cc1nc(-c2nnn(C)c2COC(=O)N(C)CC2CCC2)ccc1O[C@H]1CCC[C@H](C(N)=O)C1` [Example 14, (4-(5-(((1S,3S)-3-carbamoylcyclohexyl)oxy)-6-methylpyridin-2-yl)-1-methyl-1H-1,2,3-triazol-5-yl)methyl (cyclobutylmethyl)(methyl)carbamate] belongs 6.08; to `Cc1nc(-c2nnn(C)c2COC(=O)N(C)CC2CCC2)ccc1O[C@H]1CCC[C@H](C#N)C1` [Example 15, (4-(5-(((1S,3S)-3-cyanocyclohexyl)oxy)-6-methylpyridin-2-yl)-1-methyl-1H-1,2,3-triazol-5-yl)methyl (cyclobutylmethyl)(methyl)carbamate], 5.43; to `Cc1nc(-c2nnn(C)c2COC(=O)N(C)CC2CCC2)ccc1O[C@H]1CCC[C@H](c2nnn[nH]2)C1` [Example 16, (4-(5-(((1S,3 S)-3-(1H-tetrazol-5-yl)cyclohexyl)oxy)-6-methylpyridin-2-yl)-1-methyl-1H-1,2,3-triazol-5-yl)methyl (cyclobutylmethyl)(methyl)carbamate], 7.66. On to `Cc1nc(-c2nnn(C)c2COC(=O)N(C)CC2CCC2)ccc1O[C@H]1CCC[C@H](C(=O)NS(C)(=O)=O)C1` [Example 17, (1-methyl-4-(6-methyl-5-(((1S,3S)-3-((methylsulfonyl)carbamoyl)cyclohexyl)oxy)pyridin-2-yl)-1H-1,2,3-triazol-5-yl)methyl (cyclobutylmethyl)(methyl)carbamate], for which the pIC50 is 6.45.

Staying with this assay, now noted: human LPA1; read-out: hLPA1 IC50.
Regarding `Cc1nc(-c2nnn(C)c2COC(=O)N(C)C2CC3(CCC3)C2)ccc1O[C@H]1CCCC(C(=O)O)C1` (stereo in doubt) [Example 158, (1R,3S)-3-((2-methyl-6-(1-methyl-5-(((methyl(spiro[3.3]heptan-2-yl)carbamoyl)oxy)methyl)-1H-1,2,3-triazol-4-yl)pyridin-3-yl)oxy)cyclohexane-1-carboxylic acid], the pIC50 is 7.49.

The assay is the same for the next values; noted with them: read-out: hLPA1 IC50.
With `Cc1nc(-c2nnn(C)c2COC(=O)N(C)[C@H](C)c2ccccc2)ccc1O[C@H]1CCC[C@H](C(=O)O)C1` [Example 19, (1S,3S)-3-((2-methyl-6-(1-methyl-5-(((methyl((R)-1-phenylethyl)carbamoyl)oxy)methyl)-1H-1,2,3-triazol-4-yl)pyridin-3-yl)oxy)cyclohexane-1-carboxylic acid], the pIC50 is 7.77. On the same count and under the same terms, to `C[C@H](c1ccccc1)N(C)C(=O)OCc1c(-c2ccc(O[C@H]3CCC[C@H](C(=O)O)C3)cn2)nnn1C` [Example 21, (1S,3S)-3-((6-(1-methyl-5-(((methyl((R)-1-phenylethyl)carbamoyl)oxy)methyl)-1H-1,2,3-triazol-4-yl)pyridin-3-yl)oxy)cyclohexane-1-carboxylic acid] belongs 7.68; to `CN(Cc1ccccc1)C(=O)OCc1c(-c2ccc(O[C@H]3CCC[C@H](C(=O)O)C3)cn2)nnn1C` [Example 22, (1S,3S)-3-((6-(5-(((benzyl(methyl)carbamoyl)oxy)methyl)-1-methyl-1H-1,2,3-triazol-4-yl)pyridin-3-yl)oxy)cyclohexane-1-carboxylic acid], 7.74. For the molecule `CN(CC1CCC1)C(=O)OCc1c(-c2ccc(O[C@H]3CCC[C@H](C(=O)O)C3)cn2)nnn1C` [Example 23, (1S,3S)-3-((6-(5-((((cyclobutylmethyl)(methyl)carbamoyl)oxy)methyl)-1-methyl-1H-1,2,3-triazol-4-yl)pyridin-3-yl)oxy)cyclohexane-1-carboxylic acid], the pIC50 was 7.92.

Regarding `C[C@H](C1CC1)N(C)C(=O)OCc1c(-c2ccc(O[C@H]3CCC[C@H](C(=O)O)C3)cn2)nnn1C` [Example 25, (1S,3S)-3-((6-(5-(((((R)-1-cyclopropylethyl)(methyl)carbamoyl)oxy)methyl)-1-methyl-1H-1,2,3-triazol-4-yl)pyridin-3-yl)oxy)cyclohexane-1-carboxylic acid], the pIC50 is 7.70.

As to `CN(Cc1ccccc1)C(=O)OCc1c(-c2ccc(O[C@H]3CCC[C@H](C(=O)O)C3)c(F)c2)nnn1C` [Example 26, (1S,3S)-3-(4-(5-(((benzyl(methyl)carbamoyl)oxy)methyl)-1-methyl-1H-1,2,3-triazol-4-yl)-2-fluorophenoxy)cyclohexane-1-carboxylic acid], the pIC50 was 7.47. With `CN(CC1CCC1)C(=O)OCc1c(-c2ccc(O[C@H]3CCC[C@H](C(=O)O)C3)c(F)c2)nnn1C` [Example 27, (1S,3S)-3-(4-(5-((((cyclobutylmethyl)(methyl)carbamoyl)oxy)methyl)-1-methyl-1H-1,2,3-triazol-4-yl)-2-fluorophenoxy)cyclohexane-1-carboxylic acid], the pIC50 was 7.85. Still for that read-out and setting: to `Cc1nc(-c2nnn(C)c2COC(=O)N(C)[C@H](C)C2CC2)ccc1O[C@H]1CCC[C@H](C(=O)O)C1` [Example 29, (1S,3S)-3-((6-(5-(((((R)-1-cyclopropylethyl)(methyl)carbamoyl)oxy)methyl)-1-methyl-1H-1,2,3-triazol-4-yl)-2-methylpyridin-3-yl)oxy)cyclohexane-1-carboxylic acid] belongs 7.39; to `Cc1nc(-c2nnn(C)c2COC(=O)N(C)Cc2ccccc2)ccc1O[C@H]1CCC[C@H](C(=O)O)C1` [Example 30, (1S,3S)-3-((6-(5-(((benzyl(methyl)carbamoyl)oxy)methyl)-1-methyl-1H-1,2,3-triazol-4-yl)-2-methylpyridin-3-yl)oxy)cyclohexane-1-carboxylic acid], 7.80. On to `Cc1nc(-c2nnn(C)c2COC(=O)N(C)CCC(C)C)ccc1O[C@H]1CCC[C@H](C(=O)O)C1` [Example 34, (1S,3S)-3-((6-(5-(((isopentyl(methyl)carbamoyl)oxy)methyl)-1-methyl-1H-1,2,3-triazol-4-yl)-2-methylpyridin-3-yl)oxy)cyclohexane-1-carboxylic acid], for which the pIC50 is 7.80.

`Cc1nc(-c2nnn(C)c2COC(=O)N(C)Cc2ccc(Cl)cc2)ccc1O[C@H]1CCC[C@H](C(=O)O)C1` [Example 35, (1S,3S)-3-((6-(5-((((4-chlorobenzyl)(methyl)carbamoyl)oxy)methyl)-1-methyl-1H-1,2,3-triazol-4-yl)-2-methylpyridin-3-yl)oxy)cyclohexane-1-carboxylic acid]: the pIC50 is 6.55. `Cc1cc(-c2nnn(C)c2COC(=O)N(C)[C@H](C)C2CC2)ccc1O[C@H]1CCC[C@H](C(=O)O)C1` [Example 36, (1S,3S)-3-(4-(5-(((((R)-1-cyclopropylethyl)(methyl)carbamoyl)oxy)methyl)-1-methyl-1H-1,2,3-triazol-4-yl)-2-methylphenoxy)cyclohexane-1-carboxylic acid]: the pIC50 is 8.22. For the molecule `Cc1cc(-c2nnn(C)c2COC(=O)N(C)CC2CCC2)ccc1O[C@H]1CCC[C@H](C(=O)O)C1` [Example 37, (1S,3S)-3-(4-(5-((((cyclobutylmethyl)(methyl)carbamoyl)oxy)methyl)-1-methyl-1H-1,2,3-triazol-4-yl)-2-methylphenoxy)cyclohexane-1-carboxylic acid], the pIC50 is 7.85.

(Values after patent publication US10576062B2, “Carbamoyloxymethyl triazole cyclohexyl acids as LPA antagonists” (Bristol-Myers Squibb Company, priority 2016, dated 2020).)
